# PMC4557289, “Thymoproteasomes produce unique peptide motifs for positive selection of CD8^+ T cells” (Nature Communications, 2015)
# “Also recorded” adds a separate entry of the source.
# Key:
# OT-I TCR [1] = assay: MHC-tetramer-binding assay (peptide/H-2K^b tetramers); design: species or system mouse; conditions: peptide/H-2K^b tetramers on CD4/CD8 double-positive thymocytes from Tap1^−/− OT-I TCR-transgenic mice, 100 μM cytochalasin D, 37 °C, 90 min, flow cytometry; Fig. 6b; result in words
# Protocol: CD4/CD8 double-positive thymocytes from Tap1^−/− OT-I TCR transgenic mice (6- to 8-week-old females) were stained with indicated peptide-K^b tetramers (MBL) in the presence of 100 μM cytochalasin D (Sigma-Aldrich) at 37 °C for 90 min (refs [31], [44]) and were analysed using flow cytometry.
# OT-I TCR [2] = assay: CD4/CD8 dulling assay, OT-I thymocytes; assay type: cell-based, mouse; conditions: thymocytes from Tap1^−/− OT-I TCR-transgenic mice (n=3) with peptide and irradiated B6-Ly5.1 splenocytes, 18 h, flow cytometry; Fig. 6c; result in words
# Protocol: Dulling assay was performed as described[45][46] with minor modifications. Thymocytes from Tap1^−/− OT-I TCR transgenic mice were stimulated in the presence of peptides and irradiated splenocytes from B6-Ly5.1 mice (CD45.1^+CD45.2^−). Female mice at 6–8 weeks of age were used for experiments. After 18 h, thymocytes were stained with antibodies specific for CD4 (GK1.5), CD8 (53-6.7), CD45.1 (A20) and CD45.2 (104) and analysed using flow cytometry (antibodies were obtained from Biolegend and used at 10 μg ml^−1). Specific dulling of CD4 and CD8 expression induced by peptide stimulation was calculated as previously described.
# OT-I TCR [3] = assay: agonist activity assay (T-cell stimulation, CD69), mature OT-I cells; assay type: cell-based, mouse; conditions: splenocytes from Rag^−/− OT-I TCR transgenic mice (n=3), peptide 5 h, CD69 on CD8^+CD44^lo cells; Fig. 6d; result in words
# Protocol: Spleen cells from Rag1^−/− OT-I TCR transgenic mice (8-week-old females) were cultured in the presence of peptides for 5 h. CD69 expression on CD8^+CD44^lo cells was analysed using flow cytometry using anti-CD69 antibodies (H1.2F3; BD Pharmingen, 10 μg ml^−1).
# [4] = test system: thymus lobes from Tap1^−/− OT-I TCR transgenic mice; assay: fetal thymus organ culture (FTOC) of OT-I thymocytes; assay type: cell-based, mouse; conditions: E15 thymus lobes, peptide 20 μM, 3 days, result in words
# Protocol: FTOC was essentially performed as described previously. Embryonic mice on day 15 of gestation were obtained from Tap1^−/− OT-I TCR transgenic mice. Thymus lobes were cultured on Isopore membrane filters (Millipore) placed on Gelfoam sponge (Pfizer) floated in medium. Peptides were added at a concentration of 20 μM. After 3 days in the culture, thymocytes were stained with antibodies specific for CD4 (GK1.5), CD8 (53-6.7) and Vα2 (B20.1) and analysed using flow cytometry; staining antibodies were obtained from Biolegend and were used at 10 μg ml^−1.
# OT-I thymocytes = conditions: known classification of OVAp and variants, Fig. 6a; cited from earlier work
# Excerpt: To examine whether these peptide features play roles in thymic selection, we employed the OVA-specific TCR transgenic line OT-I, which is the best-studied model of amino-acid substitution in MHC-associated peptides for thymic selection of functionally competent MHC-I-restricted T cells. […] We then tested OVAp variant peptides with tCP ... || Figure 6 OVAp peptide variants with tCP-dependent motifs show lower affinities to OT-I TCR. (a) List of OVAp variants used for assays in b–d and Fig. 7a,b. (b) Binding of peptide/H-2K^b tetramers to CD4/CD8 double-positive thymocytes from Tap1^−/− OT-I TCR-transgenic mice. (c) Dulling of CD4/CD8 co-receptors in OT-I thymocytes by OVAp variants. Thymocytes from Tap1^−/− OT-I TCR-transgenic mice (n=3) were stimulated in the presence of peptides at indicated concentrations and irradiated splenocytes from B6-Ly5.1 mice. (d) Activation of mature OT-I cells by OVAp variants. Splenocytes from Rag2^−/ ...
sequence,measurement,setting,value
SIINFEKL [OVAp],affinity to OT-I TCR by MHC-tetramer-binding assay,OT-I TCR [1],high affinity
same,affinity to OT-I TCR by CD4/CD8 dulling assay,OT-I TCR [2],high affinity
same,affinity to OT-I TCR by agonist activity assay,OT-I TCR [3],high affinity
same,CD4/CD8 double-positive cells in FTOC,"[4]; Fig. 7a,b",depletion of CD4/CD8 double-positive cells
same,"number of OT-I TCR^high (Vα2^high) CD8 single-positive thymocytes in FTOC, compared with unrelated peptide gp33","[4]; Fig. 7b, n=3, Student's t-test",clear decrease
same,Effects on DP thymocytes (thymic selection of OT-I thymocytes),OT-I thymocytes,"mediates negative selection; also recorded: Negative selector, original Ag"
